Experimental data published in paper PMC7111280 (European Journal of Medicinal Chemistry, 2018).

Experiments:
vaccinia virus = assay: microbe, parasite or virus in culture; assay type: cell-based; conditions: Orthopoxvirus vaccinia, HEL, read-out: vaccinia virus EC50
L1210 = conditions: read-out: L1210 IC50; proliferation, Coulter Counter cell count; cited from earlier work
CEM = conditions: read-out: CEM IC50; proliferation, Coulter Counter cell count; cited from earlier work
HeLa = conditions: read-out: HeLa IC50; proliferation, Coulter Counter cell count; cited from earlier work
Hel cells = conditions: Table 5, HSV/vaccinia assays, Hel cell morphology
HSV-1 (TK−) KOS ACVr = assay: microbe, parasite or virus in culture; assay type: cell-based, herpes simplex virus type 1; conditions: Human alphaherpesvirus 1, HEL, read-out: HSV-1 (TK−) KOS ACVr EC50
HMVEC = assay: Endothelial cell proliferation, Coulter counter; assay type: cell-based; conditions: Homo sapiens, 96 h, read-out: HMVEC IC50
CMV (AD-169) = assay: Antiviral cytopathicity assay in Hel cells; assay type: cell-based, human cytomegalovirus
MDA-MB-231-LM2 cells = assay: Metastatic breast cancer xenograft mouse model; assay type: in vivo, SCID mice

Compound: C#C[C@@]1(O)[C@@H](CO)O[C@@H](n2cnc3c(N)ncnc32)[C@@H]1O [Compound 5, 3′-C-ethynyladenosine]
- EC50 (vaccinia virus): 0.35 ± 0.05 µM
- IC50 (L1210): 0.73 ± 0.14 µM
- IC50 (CEM): 0.61 ± 0.08 µM
- IC50 (HeLa): 0.29 ± 0.11 µM

Compound: C#C[C@@]1(O)[C@@H](CO)O[C@@H](n2cc(Br)c3c(Cl)ccnc32)[C@@H]1O [Compound 67, 3-bromo-4-chloro-N1-(3′-C-ethynyl-β-D-ribofuranosyl)-pyrrolo[2,3-b]pyridine]
- MCC (minimal cytotoxic concentration) (Hel cells): >100 µM

Compound: Nc1nc2c(ncn2COCCO)c(=O)[nH]1 [Acyclovir, reference compound]
- MCC (minimal cytotoxic concentration) (Hel cells): >250 µM

Compound: Nc1ccn(C[C@@H](CO)OCP(=O)(O)O)c(=O)n1.O.O [Cidofovir]
- EC50 (HSV-1 (TK−) KOS ACVr): 2 µM
- EC50 (vaccinia virus): 22 µM
- MCC (minimal cytotoxic concentration) (Hel cells): >250 µM

Compound: C#C[C@@]1(O)[C@@H](CO)O[C@@H](n2cc(F)c3c(N)ncnc32)[C@@H]1O [Compound 31, 4-amino-5-fluoro-N7-(3′-C-ethynyl-β-D-ribofuranosyl)-pyrrolo[2,3-d]pyrimidine]
- IC50 (HMVEC): < 0.00128 µM

Compound: C#C[C@@]1(O)[C@@H](CO)O[C@@H](n2cc(I)c3c(Cl)ccnc32)[C@@H]1O [Compound 68, 3-iodo-4-chloro-N1-(3′-C-ethynyl-β-D-ribofuranosyl)-pyrrolo[2,3-b]pyridine]
- MCC (minimal cytotoxic concentration) (Hel cells): >100 µM

Compound: C#C[C@@]1(O)[C@@H](CO)O[C@@H](n2cc(I)c3c(N)ncnc32)[C@@H]1O [Compound 34, 4-amino-5-iodo-N7-(3′-C-ethynyl-β-D-ribofuranosyl)-pyrrolo[2,3-d]pyrimidine]
- IC50 (HMVEC): < 0.00128 µM

Compound: C#C[C@@]1(O)[C@@H](CO)O[C@@H](n2cc(Cl)c3c(Cl)ccnc32)[C@@H]1O [Compound 66, 3,4-dichloro-N1-(3′-C-ethynyl-β-D-ribofuranosyl)-pyrrolo[2,3-b]pyridine]
- selectivity index (CMV (AD-169); human cytomegalovirus (hCMV)): 10 fold
- MCC (minimal cytotoxic concentration) (Hel cells): ≥100 µM

Compound: C#C[C@@]1(O)[C@@H](CO)O[C@@H](n2cc(Cl)c3c(N)ncnc32)[C@@H]1O [Compound 32, 4-amino-5-chloro-N7-(3′-C-ethynyl-β-D-ribofuranosyl)-pyrrolo[2,3-d]pyrimidine]
- IC50 (HMVEC): < 0.00128 µM
- tumor growth (BLI radiance, caliper) (MDA-MB-231-LM2 cells; 0.3 mg/kg i.t., starting from day 18, after four i.t. injections): significantly retarded
- total metastasis burden in the lungs (BLI) (MDA-MB-231-LM2 cells; day 34 versus vehicle control group): significantly lower

Compound: C#C[C@@]1(O)[C@@H](CO)O[C@@H](n2ccc3c(Cl)ccnc32)[C@@H]1O [Compound 70, 4-chloro-N1-(3′-C-ethynyl-β-D-ribofuranosyl)-pyrrolo[2,3-b]pyridine]
- activity against hCMV (CMV (AD-169)): inactive
- MCC (minimal cytotoxic concentration) (Hel cells): >100 µM

Compound: Nc1nc(O)c2ncn(COC(CO)CO)c2n1 [Ganciclovir, reference compound]
- MCC (minimal cytotoxic concentration) (Hel cells): >100 µM
